Source: patent publication EP0289070A1, “Tertiary arylethyl amine derivatives having opiate-antagonistic activity” (DUPHAR INTERNATIONAL RESEARCH B.V, priority 1987, dated 1988)
Read-outs that look alike come from different tables or passages of the source.

Experiments:
[1] = target: cholinergic muscarine receptors; type: binding, rat
[2] = target: (mainly u.-type) opiate receptors (Rattus norvegicus, UniProt P33535); experiment: Affinity to opiate receptors: [3H]-naloxone displacement in rat brain homogenates; type: binding
[3] = [^3H] QNB displacement expressed in Ki; homogenates of rat brains; read-out: Affinity to muscarine receptors 2)

Chain of (mainly u.-type) opiate receptors (P33535 whole entry): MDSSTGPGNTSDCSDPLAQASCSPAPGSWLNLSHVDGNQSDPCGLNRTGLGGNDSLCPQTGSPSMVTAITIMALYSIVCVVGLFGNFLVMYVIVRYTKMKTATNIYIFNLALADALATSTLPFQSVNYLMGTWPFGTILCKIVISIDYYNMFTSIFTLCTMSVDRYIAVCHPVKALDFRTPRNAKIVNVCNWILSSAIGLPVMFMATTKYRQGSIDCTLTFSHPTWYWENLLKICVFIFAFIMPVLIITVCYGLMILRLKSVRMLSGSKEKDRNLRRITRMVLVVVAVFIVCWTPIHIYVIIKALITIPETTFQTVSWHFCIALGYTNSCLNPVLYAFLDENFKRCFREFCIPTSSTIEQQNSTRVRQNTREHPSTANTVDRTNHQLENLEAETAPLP

| SMILES | Ki [1, 3] [nM] | also measured |
| --- | --- | --- |
| CCCC(=O)CCCN(CC)C(C)Cc1ccc(OC)cc1 (racemic) [e, reference compound] | 28 | – |
| CCN(CCCC(=O)C1CCCCC1)[C@H](C)Cc1ccc(O)cc1 [c] | 450 | opiate-antagonistic activity [2]: found substantially entirely in the R isomer |
| CCN(CCCC(=O)C1CCCCC1)[C@@H](C)Cc1ccc(O)cc1 [d] | 4.1 | muscarinolytic activity ([1]; pure R and S isomers of racemic compound b compared): found substantially exclusively in the S isomer |
| CCCN(CCCC(=O)C1CCCCC1)C(C)Cc1ccc(O)cc1 (racemic) [a] | 5.2 | – |
| CCN(CCCC(=O)C1CCCCC1)C(C)Cc1ccc(O)cc1 (racemic) [b] | 9.6 | – |
| CCN(CCCC(=O)C1CCCCC1)C(C)Cc1ccc(OC)cc1 (racemic) [g, reference compound] | 2.7 | – |
| CCN(CCCC(=O)C1CCCCC1)C(C)Cc1ccc(Cl)cc1 (racemic) [f, reference compound] | 8.3 | – |
| CN1[C@@H]2CC[C@H]1C[C@@H](OC(=O)C(CO)c1ccccc1)C2 (stereo partly shown) [atropine, reference compound] | – | Ki ([1]; read-out: Affinity to muscarine receptors 2)): 1.4 nM |
